Data published in US8916517B2, “Analogs of pituitary adenylate cyclase-activating polypeptide (PACAP) and methods for their use” (The Administrators of the Tulane Educational Fund, priority 2009, dated 2014).
Values joined by “and” are separate entries in the source; they are usually repeats but may differ in a detail not shown here. Identical values can stand only once. “Also recorded” adds a separate entry of the source. Like-named read-outs stand apart in the source and are kept apart here.

Experiments:
[1] = system: light-chain immunoglobulin-secreting human multiple myeloma cells; assay: Inhibition of proliferation of light-chain immunoglobulin-secreting human multiple myeloma cells (bromodeoxyuridine incorporation); assay type: cell-based
Procedure: FIG. 3 is a table listing the EC50 for the inhibitory effects of PACAP38, PACAP27, VIP, and eight novel PACAP analogs on the proliferation of light-chain immunoglobulin-secreting myeloma cells. The light-chain immunoglobulin-secreting human multiple myeloma cells were cultured in RPMI 1640 medium supplemented with 10% non-inactivated fetal bovine serum and 0.05 mM 2-mercaptoethanol. The effects of PACAP38, PACAP27, VIP, and the eight novel PACAP analogs on myeloma cell proliferation were assessed by determining incorporation of bromodeoxyuridine into DNA during cell division. The number of myeloma cells approximately doubled during the 24-hour incubation period in the absence of treatment with PACAP-like peptides. Five different concentrations, ranging from 10^-13 M to 10^-5 M, were tested for PACAP38, PACAP27, VIP, and each of the eight novel PACAP analogs. The EC50 was calculated from the concentration response curve using the software package Prism (Graph Pad, San Diego, CA). Each value represents the mean of four-six determinations per experiment. The EC50 for PACAP38 is based on the average of four separate experiments, while the EC50 for PACAP27 and [Pip^3,Aib ^16,28,Ala^17,Lys^34,D-LysIPACAP 38 (SEQ ID NO: 4) is based on the average of two separate experiments.
FIG. 4 is a graph showing a representative concentration response curve from a single experiment on the inhibitory effects PACAP38 and six PACAP38 analogs on the proliferation of light-chain immunoglobulin-secreting human myeloma cells. Each value represents the mean plus/minus the standard error of four-six determinations. Note that replacing pipecolic acid in position 3 of the novel analogs with either nipecotic acid or isonipecotic acid results in an analog with more than four orders of magnitude lower inhibitory potency.
The effects of PACAP38, PACAP27, VIP, and PACAP analogs on myeloma cell proliferation were assessed by determining incorporation bromodeoxyuridine into DNA during cell division. […]

[2] = system: rat renal proximal tubule epithelial cells; assay: Reduction of cisplatin-induced apoptotic cell death of renal proximal tubule epithelial cells (histone-associated DNA fragmentation); assay type: cell-based; settings: cisplatin 24 hours; for reduction in cisplatin-induced apoptotic cell death: 10^-6 M in the medium
[3] = system: ischemia/reperfusion injury to the kidney; assay: Serum creatinine after renal ischemia/reperfusion injury in mice; assay type: in vivo, male C57BL/6 mice; settings: 20 micrograms i.p. 1, 24 and 48 h after start of reperfusion; 45 min renal artery clamping; 72 hours
Procedure: FIG. 6 is a graph showing the effects of PACAP38 and two novel PACAP analogs on serum creatinine levels in mice following ischemia/reperfusion injury to the kidney. The renal artery in male C57BL/6 mice was clamped bilaterally for 45 minutes in all mice except for the sham-operated mice. Twenty micrograms of PACAP38 or one of the PACAP analogs were given intraperitoneally 1 hour after the start of reperfusion and additional doses were given at 24 and 48 hours after the initial dose. The sham-operated group of mice was injected intraperitoneally with PACAP38 on the same schedule as the mice subjected to ischemia/reperfusion. The control group of mice was injected intraperitoneally with the same volume of saline as for the injections of PACAP38 on the same schedule. All of the mice were euthanized 24 hours after the final injection of saline, PACAP38 or one of the novel PACAP analogs. Each value represents the mean plus/minus the standard error of four determinations. **p<0.01 and *p<0.05 compared to the ischemia/reperfusion group treated with saline. I/R, ischemia/reperfusion; sham, sham-operated.

[4] = system: human myeloma cell line (MM.1S); assay: Proliferation of myeloma cell line MM.1S (bromodeoxyuridine incorporation); assay type: cell-based; settings: FIG. 8
Procedure: (§1) FIG. 8 is a graph showing the effects PACAP38, [Pip^3,Ala^14,17,Aib^1 6,28,Lys^34,D-Lys^38 (SEQ ID NO: 6) and dexamethasone on the proliferation of light-chain immunoglobulin-secreting human myeloma cell line (MM.1S) that was derived from a patient who was being treated for multiple myeloma with a dexamethasome-containing regimen. The light-chain immunoglobulin-secreting multiple myeloma cells were cultured in RPMI 1640 medium supplemented with 10% non-inactivated fetal bovine serum and 0.05mM 2-mercaptoethanol. The effects of dexamethasone, PACAP38 and the novel PACAP38analog on cell proliferation were assessed by determining the incorporation of bromodeoxyuridine into DNA during cell division. Each value represents the mean plus/minus the standard error of four-six determinations. The cell lines in FIGS. 8 and 9 were obtained from the same patient at different stages of the treatment (Greenstein et al., Exp HematoI31 :271-282, 2003).

[5] = system: human myeloma cell line (MM.1 R); assay: Proliferation of dexamethasone-resistant myeloma cell line MM.1R (bromodeoxyuridine incorporation); assay type: cell-based; settings: FIG. 9
Procedure: as §1, with “FIG. 9” for “FIG. 8”, “PACAP38, [Pip^3,Ala^14,17,Aib^16,28,Lys^34,D-Lys^38] PACAP38(SEQ” for “PACAP38, [Pip^3,Ala^14,17,Aib^1 6,28,Lys^34,D-Lys^38 (SEQ”, “line (MM.1 R)” for “line (MM.1S)”, “novel PACAP38 analog” for “novel PACAP38analog”, “four-six determination.” for “four-six determinations.”, “Exp Hematol 31” for “Exp HematoI31”

[6] = system: human renal proximal tubule epithelial cells; assay: Reduction of gentamicin-induced apoptotic cell death of human renal proximal tubule epithelial cells; assay type: cell-based; settings: gentamicin 24 hours
Procedure: The inhibitory effects of PACAP38 and the novel PACAP analog on apoptotic cell death was assessed by the quantitative determination of cytoplasmic histone-associated DNA-fragmentation (mono- and oligonucleosomes) after exposure to gentamicin for 24 hours. […] Each value represents the mean plus/minus the standard deviation of four determinations. **p<0.01 and *p<0.05 compared to the group treated only with gentamicin.

[7] = system: transient focal cerebral ischemia; settings: 48 hours, cited from earlier work
[8] = system: rat hippocampal neuron/glia co-cultures; settings: gp120 as neurotoxin; cited from earlier work
[9] = humans; cited from earlier work
[10] = biological target: T1, PAC1 receptor (Homo sapiens, UniProt P41586); settings: cited from earlier work
T1 sequence (P41586 21-468): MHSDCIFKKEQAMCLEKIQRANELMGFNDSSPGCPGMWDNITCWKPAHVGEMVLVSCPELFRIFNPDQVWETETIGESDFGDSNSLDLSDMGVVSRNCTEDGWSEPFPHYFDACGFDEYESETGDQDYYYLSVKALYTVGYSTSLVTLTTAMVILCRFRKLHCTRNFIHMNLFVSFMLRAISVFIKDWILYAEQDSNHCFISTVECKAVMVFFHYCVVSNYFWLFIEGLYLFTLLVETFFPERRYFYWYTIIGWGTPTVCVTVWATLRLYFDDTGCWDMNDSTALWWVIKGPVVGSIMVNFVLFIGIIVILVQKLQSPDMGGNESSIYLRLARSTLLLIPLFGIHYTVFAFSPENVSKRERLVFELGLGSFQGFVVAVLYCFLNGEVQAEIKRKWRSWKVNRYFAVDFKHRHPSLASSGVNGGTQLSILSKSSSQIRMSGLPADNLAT

[11] = rat, in vivo, iv; cited from earlier work

Substance: HSDGIFTDSYSRYRKQMAVKKYLAAVLGKRYKQRVKNK [PACAP38]
- EC50 ([1]; 24-hour incubation, FIG. 3, read-out: concentration giving 50% inhibition of the rate of proliferation (EC50)): ~0.25 nM
- reduction in cisplatin-induced apoptotic cell death [2]: significant reduction
- reversal of the rise in serum creatinine caused by ischemia/reperfusion [3]: almost completely reversed
- sensitivity of cell proliferation [4]: sensitive
- sensitivity of cell proliferation [5]: still sensitive
- cytoprotective potency, PACAP38 versus [Pip^3]PACAP38 [6]: more effective
- reduction in gentamicin-induced apoptotic cell death ([6]; various concentrations): significant dose-dependent reduction; also recorded: dose-dependent inhibition
- reduction of the infarct volume ([7]; continuous i.v. infusion beginning 4 hours after start of 2-hour MCAO): approximately 51%
- reduction of the infarct volume ([7]; continuous i.v. infusion beginning 8 hours after start of 2-hour MCAO): ~22%
- reduction of the infarct volume ([7]; continuous i.v. infusion beginning 12 hours after start of 2-hour MCAO): ~12%

Substance: PACAP
- peaks of bimodal dose-response curve for prevention of neuronal death [8]: 10^−13 M and 10^−10 M
- only untoward effect reported [9]: transient flushing

Substance: VIP
- potency compared with PACAP38 or the novel PACAP38 analogs ([1]; inhibition of myeloma cell proliferation): significantly less potent
- reduction in cisplatin-induced apoptotic cell death [2]: reduced
- cytoprotective potency compared with PACAP38 ([2]; comparable concentrations): significantly less potent than PACAP38
- affinity for PAC1 receptor relative to PACAP [10]: 1,000 times less

Substance: [^125I]-PACAP38
- half-life in the bloodstream [11]: 5 to 6 min
